# Test results taken from patent publication US20180111913A1, “SUBSTITUTED BENZOFURAN DERIVATIVES AS NOVEL ANTIMYCOBACTERIAL AGENTS” (priority 2015, published 2018).
# Like-named read-outs stand apart in the source and are kept apart here.
# Assays:
# Mtb strain mc^27000 = assay: microbe, parasite or virus in culture; assay type: cell-based, Mycobacterium tuberculosis; conditions: for MIC: read-out: MIC
# [1] = target: Mtb Pks13-TE domain (wild-type) (Mycobacterium tuberculosis, UniProt I6X8D2); assay: biochemical; assay type: biochemical; conditions: for loss / decrease in inhibitory activity compared to compound I: relative to compound I
# Mtb Pks13-TE domain (wild-type), sequence (I6X8D2 1451-1733): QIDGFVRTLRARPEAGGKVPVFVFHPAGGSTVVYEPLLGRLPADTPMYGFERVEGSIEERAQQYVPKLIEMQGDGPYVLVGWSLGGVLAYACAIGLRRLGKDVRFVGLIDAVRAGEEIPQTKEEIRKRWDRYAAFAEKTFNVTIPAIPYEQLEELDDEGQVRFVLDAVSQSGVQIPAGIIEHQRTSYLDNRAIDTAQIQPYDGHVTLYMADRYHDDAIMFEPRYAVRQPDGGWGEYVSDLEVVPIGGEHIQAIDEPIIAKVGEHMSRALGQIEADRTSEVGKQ
# [2] = Mycobacterium tuberculosis, Mtb mc^27000, liquid medium, 96-well plates
# [3] = Pks13-TE, 20 μM 4-MUH, read-out: IC50
# [4] = Mtb Pks13-TE domain, mean ± s.d. of triplicates, read-out: IC50
# [5] = Mtb mc^27000, liquid medium, 96-well plates
# [6] = […], mean ± s.d. of triplicates, NI: no inhibition
SMILES,MIC (Mtb strain mc^27000; [2]) [µM],"IC50 [1, 3] [µM]",further results
CCOC(=O)c1c(-c2ccccc2)oc2ccc(O)c(CN3CCC(C)CC3)c12 [compound 1],2.3 ± 0.2,–,"MIC (Mtb strain mc^27000; Mycobacterium tuberculosis, […], mean ± s.d. of triplicates, NI: no inhibition): 2.3 ± 0.2 µM"
CCOC(=O)c1c(-c2ccccc2)oc2ccc(O)c(Cc3ccccc3)c12 [compound 10],40,11.9,–
CCOC(=O)c1c(-c2ccccc2)oc2cc(Cc3ccccc3)c(O)cc12 [compound 11],28,–,–
CCOC(=O)c1c(-c2ccccc2)oc2ccc(O)c(C)c12 [compound 12],20,> 20,–
O=C(O)c1c(-c2ccccc2)oc2ccc(O)c(CN3CCCCC3)c12 [compound 14],–,–,"whole-cell activity (Mtb growth inhibition), in words (Mtb strain mc^27000; Mtb mc^27000): completely abolished; IC50 [1, 4]: 6.6 ± 0.7 µM; loss / decrease in inhibitory activity compared to compound I [1]: ~20 fold"
CCOC(=O)c1c(-c2ccccc2)oc2ccc(O)c(CC3CCCCC3)c12 [compound 16],–,19.6,"MIC (Mtb strain mc^27000; [5]): 5.2 µM; MIC (Mtb strain mc^27000; [6]): 5.2 µM; IC50 [1, 4]: 19.6 ± 1.4 µM; loss of inhibitory activity / higher IC50 against Pks13-TE compared to the test compound ([1]; relative to test compound): > 70 fold"
CCNC(=O)c1c(-c2ccccc2)oc2ccc(O)c(CN3CCCCC3)c12 [compound 18],14,0.36,–
CCOC(=O)c1c(-c2ccccc2)oc2ccc(OC)c(Cc3ccccc3)c12 [compound 19],50,50,–
CNC(=O)c1c(-c2ccccc2)oc2ccc(OC)c(C(O)c3ccccc3)c12 (centres unmarked) [compound 20],50,50,–
CCOC(=O)c1c(-c2ccccc2)oc2ccc(OC)c(CN3CCCCC3)c12 [compound 23],35.8,–,"IC50 [1, 4]: 35.8 ± 2.2 µM; IC50 ([1]; Pks13-TE, read-out: IC50 (unit inferred)): ~36 µM; loss / decrease in inhibitory activity compared to compound I [1]: > 100 fold"
CCOC(=O)c1c(-c2ccccc2)oc2cccc(CN3CCCCC3)c12 [compound 24],–,2,"MIC (Mtb strain mc^27000; [5]): 16 µM; MIC (Mtb strain mc^27000; [6]): 16 µM; IC50 [1, 4]: 2 ± 0.1 µM; loss / decrease in inhibitory activity compared to compound I [1]: ~7 fold"
CCOC(=O)c1c(-c2ccc(F)cc2)oc2ccc(O)c(CN3CCCCC3)c12 [compound 25],–,0.35,MIC (Mtb strain mc^27000; [5]): 1.5 µM
CCOC(=O)c1c(-c2ccccc2)oc2cc([N+](=O)[O-])c(O)c(CN3CCCCC3)c12 [compound 26],5.4,1.3,–
CCOC(=O)c1c(-c2ccccc2)oc2cc(NC(C)=O)c(O)c(CN3CCCCC3)c12 [compound 28],–,3.1,MIC (Mtb strain mc^27000; [5]): 20 µM
CCOC(=O)c1c(-c2ccccc2)oc2cc(NC(C)=O)cc(CN3CCCCC3)c12 [compound 30],20 to 27,–,–
CNC(=O)c1c(-c2ccccc2)oc2cccc(CN3CCCCC3)c12 [compound 33],> 50,45,–
CCOC(=O)c1c(-c2ccccc2)oc2cc(CN3CCCCC3)cc(OC)c12 [compound 35],40,–,–
CCOC(=O)c1c(-c2ccccc2)oc2cc(CN3CCCCC3)cc(O)c12 [compound 36],40,–,–
CCOC(=O)c1c(-c2ccccc2)oc2cc(OC)cc(CN3CCCCC3)c12 [compound 37],–,29,MIC (Mtb strain mc^27000; [5]): 7.3 µM
O=C(c1c(-c2ccccc2)oc2ccc(O)c(CN3CCCCC3)c12)N1CCCCC1 [compound 43],–,0.32,MIC (Mtb strain mc^27000; [5]): >10 µM
O=C(c1c(-c2ccccc2)oc2ccc(O)c(CN3CCCCC3)c12)N1CCOCC1 [compound 46],> 20,0.34,–
CCOC(=O)c1c(-c2cccc(OC)c2)oc2ccc(O)c(CN3CCCCC3)c12 [compound 48],1.3,0.36,–
CCOC(=O)c1c(-c2ccc(F)cc2)oc2cc(O)cc(CN3CCCCC3)c12 [compound 49],–,0.4,MIC (Mtb strain mc^27000; [5]): >10 µM

SMILES,MIC (Mtb strain mc^27000; [2]) [µM],"IC50 [1, 3] [µM]",further results
CCOC(=O)c1c(-c2cccc(O)c2)oc2ccc(O)c(CN3CCCCC3)c12 [compound 50],–,0.23,MIC (Mtb strain mc^27000; [5]): 0.23 µM
CCOC(=O)c1c(-c2ccc(F)cc2)oc2cc(O)cc(CN3CCCCC3)c12 [compound 51],–,0.8,MIC (Mtb strain mc^27000; [5]): >30 µM
CC(C)(C)OC(=O)NC1CCN(C(=O)c2c(-c3ccccc3)oc3ccc(O)c(CN4CCCCC4)c23)CC1 [compound 53],–,0.63,MIC (Mtb strain mc^27000; [5]): 6.6 µM
NC1CCN(C(=O)c2c(-c3ccccc3)oc3ccc(O)c(CN4CCCCC4)c23)CC1 [compound 54],20,5.3,–
CCOC(=O)c1c(-c2ccccc2)oc2cc(O)cc(CCN)c12 [compound 55],–,4,MIC (Mtb strain mc^27000; [5]): >20 µM
CNC(=O)c1c(-c2cccc(OC)c2)oc2ccc(O)c(CN3CCCCC3)c12 [compound 56],–,0.4,MIC (Mtb strain mc^27000; [5]): 9.0 µM
CNC(=O)c1c(-c2cccc(O)c2)oc2ccc(O)c(CN3CCCCC3)c12 [compound 57],0.44,0.27,–
CCOC(=O)c1c(-c2ccc(O)c(F)c2)oc2ccc(O)c(CN3CCCCC3)c12 [compound 59],0.3,0.29,–
CCOC(=O)c1c(-c2ccc(C(N)=O)cc2)oc2ccc(O)c(CN3CCCCC3)c12 [compound 60],3.5,0.3,–
CNC(=O)c1c(-c2ccc(NC(C)=O)cc2)oc2ccc(O)c(CN3CCCCC3)c12 [compound 66],> 20,–,–
CC(C)N1Cc2cc(O)cc3oc(-c4ccccc4)c(c23)C1=O [compound 71],> 20,9,–
CCOC(=O)c1c(-c2ccc(F)cc2)oc2cc(O)cc(CCNC(C)CO)c12 (centres unmarked) [compound 77],3.3,6,–
CNC(=O)c1c(-c2ccccc2)oc2cc(O)cc(CS(=O)(=O)NC)c12 [compound 83],> 20,–,–
CNC(=O)c1c(-c2ccncc2)oc2cc(O)cc(CN3CCCCC3)c12 [compound 84],6.1,–,–
CNC(=O)c1c(-c2ccnc(O)c2)oc2cc(O)cc(CN3CCCCC3)c12 [compound 85],> 10,–,–
CNC(=O)c1c(-c2ccnc(OC)c2)oc2cc(OC)cc(CN3CCCCC3)c12 [compound 86],> 20,> 20,–
CNC(=O)c1c(-c2ccnc(OC)c2)oc2cc(O)cc(CN3CCCCC3)c12 [compound 87],3.3,–,–
CNC(=O)c1c(-c2cccc(O)c2)oc2cc(O)cc(CN3CCCCC3)c12 [compound 89],1.2,9,–
CNC(=O)c1c(-c2ccccc2)oc2cc(O)cc(CN3CCOCC3)c12 [compound 94],> 20,–,–
CNC(=O)c1c(-c2ccccc2)oc2cc(O)cc(CNC3CCOCC3)c12 [compound 95],8,–,–
CNC(=O)c1c(-c2ccccc2)oc2cc(O)cc(CNCCO)c12 [compound 96],9,–,–
CNC(=O)c1c(-c2ccccc2)oc2ccc(O)c(CCN3CCCC3)c12 [compound 101],3.3,–,–
CCOC(=O)c1c(-c2ccccc2)oc2ccc(O)c(CCO)c12 [compound 106],> 20,–,–

SMILES,MIC (Mtb strain mc^27000; [2]) [µM],"IC50 [1, 3] [µM]",further results
CCOC(=O)c1c(-c2ccccc2)oc2ccc(O)c(CCCO)c12 [compound 107],> 20,–,–
CCOC(=O)c1c(-c2ccccc2)oc2ccc(O)c(CC(=O)N3CCCC3)c12 [compound 130],–,–,MIC (Mtb strain mc^27000; [5]): 4.1 µM
CCOC(=O)c1c(-c2ccccc2)oc2ccc(O)c(CC(=O)NC3CCC3)c12 [compound 131],–,–,MIC (Mtb strain mc^27000; [5]): 7.2 µM
CCOC(=O)c1c(-c2ccccc2)oc2ccc(O)c(CCN3CCC(C)CC3)c12 [compound 149],2.3,–,–
CNC(=O)c1c(-c2ccccc2)oc2ccc(O)c(CCCNCc3nonc3C)c12 [compound 195],–,–,MIC (Mtb strain mc^27000; [5]): >40 µM
CC(C)NC(=O)c1c(-c2ccc(O)cc2)oc2ccc(O)c(CCCN3CCC3)c12 [compound 214],–,–,MIC (Mtb strain mc^27000; [5]): <0.08 µM
CCOC(=O)c1c(-c2ccccc2)oc2ccc(O)c(CCCCN3CCC3)c12 [compound 215],–,–,MIC (Mtb strain mc^27000; [5]): <0.08 µM
CCOC(=O)c1c(-c2ccccc2)oc2ccc(O)c(CCCNCC(F)F)c12 [compound 218],–,–,MIC (Mtb strain mc^27000; [5]): 2.8 µM
CCOC(=O)c1c(-c2ccccc2)oc2ccc(O)c(CCNC(C(=O)O)C(F)(F)F)c12 (centres unmarked) [compound 247],–,> 40,–
CNC(=O)c1c(-c2ccccc2)oc2ccc(O)c(CCN[C@@H](Cc3cnc[nH]3)C(=O)OC)c12 [compound 250],–,2.4,–
CNC(=O)c1c(-c2ccccc2)oc2ccc(O)c(CCNCC3CCCO3)c12 (centres unmarked) [compound 252],–,1.6,–
CCOC(=O)c1c(-c2ccccc2)oc2ccc(O)c(CCNC3CCOC3)c12 (centres unmarked) [compound 254],–,2.7,–
CCOC(=O)c1c(-c2ccccc2)oc2ccc(O)c(CCCNCc3ccoc3)c12 [compound 255],–,2.1,–
CCOC(=O)c1c(-c2ccccc2)oc2ccc(O)c(CCNC(CO)Cc3cnc[nH]3)c12 (centres unmarked) [compound 256],–,1.5,–
CNC(=O)c1c(-c2ccccc2)oc2ccc(O)c(CCN3CC(CO)(CBr)C3)c12 [compound 257],–,1.25,–
CNC(=O)c1c(-c2ccccc2)oc2ccc(O)c(CCN3CCC(CO)(CBr)C3)c12 (centres unmarked) [compound 258],–,2.5,–
CNC(=O)c1c(-c2ccccc2)oc2ccc(O)c(CCN[C@@H](Cc3cnc[nH]3)C(=O)NC)c12 [compound 259],–,1,–
CNC(=O)c1c(-c2ccccc2)oc2ccc(O)c(CCN[C@H](C)Cc3cnc[nH]3)c12 [compound 260],–,4,–
CNC(=O)c1c(-c2ccc(F)cc2)oc2cc(O)cc(CCN[C@@H](Cc3ccco3)C(=O)O)c12 [compound 262],–,> 40,–
CCOC(=O)c1c(-c2ccccc2)oc2ccc(O)c(CCN3CCC4(COC4)C3)c12 [compound 264],–,2.5,–
CCOC(=O)c1c(-c2ccccc2)oc2ccc(O)c(CCN3CC4COCC4C3)c12 (centres unmarked) [compound 266],–,10,–
CCOC(=O)c1c(-c2ccccc2)oc2ccc(O)c(CCN3CCC4(CC3)COC4)c12 [compound 267],–,> 40,–
CNC(=O)c1c(-c2ccccc2)oc2ccc(O)c(CCCN3CCC3)c12 [compound 271],–,7,–
